The record followed here is patent US20050119301A1, “Treatment of restenosis” (priority 2001, published 2005).

In series [1] the test system is IMA-derived human VSMC primed with PDGF BB. The experiment in a line: PDGF BB-induced VSMC DNA synthesis, proliferation and cell number. The format is cell-based. Conditions: for proliferation of IMA cells primed with PDGF BB (in words): Cpd. 7 at concentrations as low as 0.1 nM; for effect of ER antagonist ICI 182780 on the inhibitory effect: ICI 182780 100 nmol/L. As to the method:
(§1) Cell proliferation was induced by a variety of growth factors such as serum and platelet derived growth factor (PDGF).
(§2) Media was changed to LG serum-free DMEM and cells were treated with [^3H]-thymidine at 1 μCi/well for 3 hours. Cells were washed twice with ice cold Dulbecco's PBS. Next, ice cold 0.2M HClO4 (1 ml/well) was added and cells were incubated on ice for 30 min. Cells were then washed three times with 0.5 ml/well of ice cold 0.2M HClO4. Media (0.5 ml/well of 0.2 M NaOH) was replaced and cells were incubate at 37° C. After 1 hour, cells were treated with acetic acid (6%, 0.2 ml/well), transferred to scintillation vials with 3 ml scintillation liquid (Instagel) and counted for 2 min per vial.
The effect of Cpd. 5 and Cpd. 7 was tested further in IMA-derived human VSMC primed with PDGF BB instead of serum. […] (FIG. 12). This effect was equivalent to that observed with estradiol. Cpd.
In further experiments Cpd. […] 7 at 100 nmol/L), indicating ER-mediation. […] 7 (1-100 nmol/L).

For another series, the system named is C57/B16 mice. The experiment in a line: Mouse model of neointimal hyperplasia after mechanical endothelial damage. The format is in vivo. To be noted: for effect on neointimal proliferation (in words) / neointimal proliferation, intimal thickness: 4 weeks after surgery; for neointimal proliferation, intimal thickness: in chow, surgery only 50±5%, no surgery 5±1%. An excerpt: The key feature of atherosclerosis in humans is vascular smooth muscle cell (VSMC) migration from the arterial media to the intima, followed by proliferation within the intima. The animal model of atherosclerosis used in this experiment aimed to induce VSMC migration and neointimal proliferation by mechanical damage to the endothelium. A probe was introduced into the femoral artery of the mouse and was passed through the iliac artery to the bifurcation of the aorta. The probe was then withdrawn and the femoral artery ligated to prevent haemorrhage. Colateral circulation prevents any limb-associated ischaemia. Neointimal proliferation occurred in the iliac artery over the following 4 weeks.
Proliferation was enhanced by feeding the mouse cholesterol during this time (commencing one week before surgery). At four weeks, the mice were sacrificed and the iliac vessels on both sides are harvested (the non-operated vessel was used as a control). Neointimal proliferation is expressed as the ratio of the intimal area to the intimal plus media area.
Atherosclerosis was induced in the femoral artery of each mouse by mechanically removing the endothelium using a probe. The ability of isoflavone compounds to inhibit the atherosclerotic response was assessed by comparing treatment and placebo groups. C57/B16 mice (8-10 week old male) were anaesthetized, and the right femoral artery was de-endothilialized using a dissection microscope. These mice were also fed with a 2% cholesterol diet to enhance the progression of the disease. The mice were sacrificed at week 4. Their treated (right) and control (left) arteries were both collected and fixed in formalin for histopathological evaluation.
The mice were fed a diet of 2% cholesterol mixed with normal mouse chow for a week prior to surgery. The treatment groups were fed the chow with Cpd. 5 or Cpd. 12 or Cpds. 5+12. Mice were anaesthetised with Avertin, and angioplasty of the femoral artery was performed. After surgery, the mice were moved onto a warm mat in a quiet, darkened area and their recovery closely monitored. They were housed in sterile cages with sterile bedding to avoid infection. The mice continued a diet of cholesterol mixed with normal mouse chow for the next 4 weeks. The mice were euthanased at 4 weeks postsurgery. Their femoral arteries were collected for pathological examination. Sections were evaluated by image analysis to determine the area of the various sections of the arterial wall, and the numbers of cells in each area. The primary parameter being evaluated was the increase in the intimal area, expressed as the ratio of the area of the intima versus the area of the intima plus media. The interval sections (every 50 μm, or every ten sections) were mounted and stained with H & E. The cross-sectional areas of the endothelium, intima and media were evaluated, using image analysis.

The test system of series [2] is Vascular smooth muscle cells (VSMC) derived from internal mammary artery (IMA). The series is described as follows: Serum-induced VSMC proliferation, [3H]-thymidine incorporation. Type of series: cell-based, human. Conditions: for proliferation of IMA-derived VSMC (in words) / proliferation of IMA-derived VSMC at high concentrations (in words): 2.5% FBS; for proliferation of IMA-derived VSMC (in words): 0.01-100 mM tested, Cpd. 7 effect from 0.1 mM up to 1 mM. As to the method:
Vascular smooth muscle cells (VSMC) derived from internal mammary artery (IMA) were cultured in 10% FBS-DMEM. Cells were grown to confluence in LG (glucose 5 mM)-medium then trypsinized, diluted with 10% FBS-LG medium to about 10,000 cells/ml and 1 ml of suspension was) aliquoted into four 24-well plates. Cells were then allowed to grow for 2 days to visual confluence. LG serum-free media was changed for 48 h to synchronize most cells at Go/G1.
After 24 h of serum-free medium, cells were treated with the compounds (Cpd. 5, Cpd. 7, Cpd. 8 or Cpd. 12) for 4 h and FBS was added (final concentration 2.5%) over night (18-20 hours). 4 wells were allocated for each treatment:
as §1, §2

For the next series, the system named is p38. The series is described as follows: MAP kinase activity in VSMC, immunoprecipitation analysis. The format is cell-based. To be noted: human VSMC. As to the method:
(§3) To further examine the signalling pathway mediating the effect of this phytoestrogen in VSMC, the effect of Cpd. 7 on mitogen-activated protein (MAP) kinases (Erk, JUNK, p38) was determined by immunoprecipitation analysis and on early growth response genes (Egr-1, Sp-1) by Western blotting. […] 7 in a dose-dependent manner, while JUNK and p38 activity were not affected by either PDGF BB or Cpd. 7, though the cells strongly expressed both proteins as well as Erk. Egr-1 or Sp-1 proteins were not altered by either PDGF-BB or Cpd. 7.

In the next series the test system is JUNK. The description is as above. Type of series: cell-based. To be noted: human VSMC. As to the method:
as §3

The test system of the next series is E-selectin. The series is described as follows: Inhibition of E-selectin expression in activated HUVEC. The format is cell-based, human. Conditions: pre-incubated 2 or 18 hours prior to TNF stimulation; Cpd. 8 especially at 10 μg/ml, Cpd. 12 especially at 1 and 10 μg/ml. How it is done: The ability of isoflavone compounds and derivatives to inhibit the expression of E-selectin was measured by the protocol set out in Litwin et al. (1997) and is incorporated herein by reference.
FIG. 18 provides comparative data on the ability of a number of isoflavone compounds to inhibit the expression of E-selectin conducted in accordance with the method of Litwin et al. The interaction of isoflavone metabolite Cpds. 8 and 12 on human umbilical vein endothelial cells, activated by […], was measured against the concentration of the compound. The cells were pre-incubated for either 2 or 18 hours prior to TNF stimulation. In comparison with a DMSO control, isoflavone Cpd. […] Isoflavone Cpd.

For series [3], the system named is Human umbilical vein endothelial cells. The series is described as follows: Endothelial cell migration (wound) assay. Type of series: cell-based. Details: dose or concentration left out as unconfirmed. Conditions: after 30 hours. As to the method:
Human umbilical vein endothelial cells between passage 1 and 3 were used. They were grown in gelatin coated flasks in medium 199 with Earle's Salts supplemented with 20% foetal calf serum, 25 mg/ml endothelial cell growth supplement and 25 mg/ml heparin.
5×10^5 cells per well in growth medium were plated onto fibronectin coated 6 well trays and grown to confluence. A wound was produced along the monolayer with the use of a cell scraper (Costar). The cells were then washed once and fresh medium with the test compounds was added. Defined points along the wound were marked using an ink condenser (Olympus microscopes) allowing the movement of cells to be visualized at constant points over the next 48 hours. Photographs were taken at relevant times and the degree of cell movement from the wound front assessed.

Entries after “also recorded” stand apart in the source; their conditions may differ.

Regarding `O=C1c2ccc(O)cc2OCC1c1ccc(O)cc1` (stereo not drawn) [Cpd. 5], the “proliferation of IMA cells primed with PDGF BB (in words)” value in series [1] is reported as “no observed effect on cellular proliferation”. The “reduction of neointimal area” value in the series on C57/B16 mice (4 weeks) was “approximately 50%”. In the series with C57/B16 mice, the “effect on neointimal proliferation (in words)” value is “significantly reduced” and the “neointimal proliferation, intimal thickness” value is 30±6%. For the same molecule, the “proliferation of IMA-derived VSMC (in words)” value in series [2] was “relatively inactive”.
In the case of `Oc1ccc(C2COc3cc(O)ccc3C2O)cc1` (stereo not drawn) [Cpd. 7], the p38 activity result with p38 was “not affected”. For the same molecule, the JUNK activity result with JUNK was “not affected”. Moreover, the “PDGF BB-induced increases in cell number” value in series [1] (1-100 nmol/L) was “partly but significantly reduced”. Further, in series [1], the “proliferation of IMA cells primed with PDGF BB (in words)” value is “inhibited proliferation”. In addition, the inhibition at 0.001 µM in series [1] (Homo sapiens, VSMC, 3 h, 1 nmol/L, read-out: inhibition of PDGF BB-induced DNA synthesis ([3H]-thymidine incorporation)) was 10%. For the same molecule, in series [1] (Homo sapiens, VSMC, 3 h, 10 nmol/L, read-out: inhibition of PDGF BB-induced DNA synthesis ([3H]-thymidine incorporation)), the inhibition at 0.01 µM was 17%. In addition, the inhibition at 0.1 µM in series [1] (Homo sapiens, VSMC, 3 h, 100 nmol/L, read-out: inhibition of PDGF BB-induced DNA synthesis ([3H]-thymidine incorporation)) was found to be 17%. Further, the “effect of ER antagonist ICI 182780 on the inhibitory effect” value in series [1] (compound at 100 nmol/L) is given as “partly abolished”; in series [1] (compound at 1-10 nmol/L), “completely abolished”. The “proliferation of IMA-derived VSMC (in words)” value in series [2] was “significantly inhibited proliferation”. In addition, the “proliferation of IMA-derived VSMC at high concentrations (in words)” value in series [2] (10 mM and 100 mM) is on record as “relative increase in proliferation”.
For the molecule `Oc1ccc(C2=Cc3ccc(O)cc3OC2)cc1` [Cpd. 12], the “inhibition of E-selectin expression (in words)” value with E-selectin was “excellent inhibition of E-selectin expression”. In the series on C57/B16 mice, the “effect on neointimal proliferation (in words)” value is on record as “no detectable effect; also recorded: no appreciable effect on neointimal proliferation” and the “neointimal proliferation, intimal thickness” value was 50±29%. Further, the cell damage result in series [2] (10 mM and 100 mM) is reported as “caused significant cell damage”. The “proliferation of IMA-derived VSMC (in words)” value in series [2] is given as “did not appear to inhibit cellular proliferation”. Further, the “endothelial cell migration towards the wound” value in series [3] was “markedly inhibited endothelial cell migration”.
As for `Oc1ccc(C2COc3cc(O)ccc3C2O)cc1` (stereo not drawn) [Cpd. 8], in the series with E-selectin, the “inhibition of E-selectin expression (in words)” value is “very good inhibition of E-selectin expression”. The “proliferation of IMA-derived VSMC at high concentrations (in words)” value in series [2] (10 mM and 100 mM) is listed as “caused a significant increase in proliferation”.
